Results on 25 compounds are retold here after patent publication US20130158112A1, “COMPOSITIONS AND METHODS FOR INHIBITING BETA AMYLOID SECRETION” (priority 2011, published 2013).

The subject of one data set is Aβ secretion. As to the kind of experiment: Secreted total Aβ ELISA in conditioned media of H4βAPP695 wt cells. Format: cell-based, human. The settings on record: for inhibition at 10 µM / inhibition at 30 µM: Homo sapiens, 24 h, H4βAPP695 wt cells; for inhibition at 30 µM: read-out: Total Aβ (% decrease) 30 μM Mean; for Aβ secretion inhibiting activity (structure activity summary): in words. Here is the method:
H4βAPP695 wt cells, a human […] cell line stably transfected with a wtβAPP695 expression vector construct under the control of a CMV promoter (kindly provided by Dr. Chris Eckman from Mayo Clinic, Florida) were cultured as previously described. Twenty-four hours before drug treatment, the media was replaced with serum-free media. Cells were then incubated with drugs (dissolved in DMSO) or vehicle for 24 h for collection of conditioned media and cell lysates. For the PKC inhibitors experiment, three inhibitors were treated 30 min prior to drug challenge. Primary cortical neurons were prepared from embryonic day 18 APP and presenilin 1 (APPswe, PSEN1dE9) transgenic mice on the C57BL/6 genetic background (Jackson Laboratories, strain no. 5864) as previously described. THLE-3 human hepatoma cells (from ATCC) were plated in 24-well plates that were precoated with 10 μg/mL bovine serum albumin, 10 μg/mL fibronectin, and 30 μg/mL bovine type I collagen. The cells were grown in BEGM media (Clonetics) until confluent and treated with drugs at 20 μM for 24 h. This conditioned media was harvested, diluted 1:1 in serum-free medium, and incubated with H4βAPP695 wt cells for 24 h prior to analysis of secreted Aβ, which was compared to the effect of 10 μM drug treatments without prior incubation with the THLE-3 cells. Caco-2 cells (ATCC) were plated in 12-well plates with Transwell inserts (Costar) at 70000 cells per well and grown for 21 days. The media volume of the apical and basal chambers was 0.5 and 1.5 mL, respectively. Transepithelial resistance was measured in each well and found to be >160 Ω/cm^2. Drugs at 40 μM and 20 μg/mL of lucifer yellow were added in serum-free medium to the apical chamber. Four hours later, the basal chamber media was harvested and used to measure lucifer yellow fluorescence to confirm monolayer integrity as well as for treatment of H4βAPP695 wt cells for 24 h prior to analysis of secreted Aβ, which was compared to the effect of direct addition of 10 μM of the corresponding drug.
A general note: ELISA stands for enzyme-linked immunosorbent assay.

For the next data set, the system named is H4βAPP695 wt cells. As to the kind of experiment: Cytotoxicity by total cell protein content (BCA) of H4βAPP695 wt cells. The settings on record: cytotoxicity.
Setting [1] is: read-out: Total Aβ (% decrease) 10 μM Mean.
Setting [2] is: relative to vehicle treated control cells, read-out: % β Decrease.

Read-outs that look alike come from different tables or passages of the source.

As to `COc1cccc(CS(=O)(=O)CCNC(=O)c2c(Cl)cccc2Cl)c1` [Compound 30, 2,6-dichloro-N-[2-(3-methoxy-phenylmethanesulfonyl)-ethyl]-benzamide], the inhibition at 10 µM in the data set on Aβ secretion (setting [1]) turned out to be 5.3%. Also, in the data set with Aβ secretion, the inhibition at 30 µM was 4.9% and the “Aβ secretion inhibiting activity (structure activity summary)” value (shortened to “Aβ secretion inhibiting activity”) was “No tested substitutions in the linker region were well tolerated”. Further, in the data set with H4βAPP695 wt cells, the “Cell protein (% decrease) 10 μM Mean” value is given as 1.2% and the “Cell protein (% decrease) 30 μM Mean” value is 8.9%.
Consider `O=C(NCCCCNC(=O)c1ccccc1F)c1ccccc1F` [Compound 25], for which, in the data set on Aβ secretion (setting [2]), the inhibition at 10 µM was found to be 0.2%.
`CCOC(=O)c1cccc(CSCCNC(=O)c2c(Cl)cccc2Cl)c1` [Compound 43, 3-[2-(2,6-Dichloro-benzoylamino)-ethylsulfanylmethyl]-benzoic Acid Ethyl Ester]: the melting point lay within 43 to 45 °C. For the same compound, in the data set on Aβ secretion (setting [1]), the inhibition at 10 µM stood at 3%. In addition, in the data set on Aβ secretion, the inhibition at 30 µM was determined as 10.1% and the “Aβ secretion inhibiting activity” value is “did not yield good activity”. For the same compound, in the data set on H4βAPP695 wt cells, the “Cell protein (% decrease) 10 μM Mean” value was determined as 5.8% and the “Cell protein (% decrease) 30 μM Mean” value is 5.4%.
The compound `O=C(NCCSCc1cccc(Cl)c1)c1ccccc1` [Compound 63, N-[2-(3-Chloro-benzylsulfanyl)-ethyl]-benzamide] yielded a melting point of 75 to 76 °C. Moreover, the inhibition at 10 µM in the data set on Aβ secretion (setting [1]) is 0.3%. In the data set on Aβ secretion, the inhibition at 30 µM was 10.7% and the “Aβ secretion inhibiting activity” value is “not well tolerated”. Besides, in the data set on H4βAPP695 wt cells, the “Cell protein (% decrease) 10 μM Mean” value was found to be 2.4% and the “Cell protein (% decrease) 30 μM Mean” value is given as −4.5%.
As to `Clc1cccc(CSCCNCc2c(Cl)cccc2Cl)c1` [Compound 57, [2-(3-Chloro-benzylsulfanyl)-ethyl]-(2,6-dichloro-benzyl)-amine], the inhibition at 10 µM in the data set on Aβ secretion (setting [1]) is 45.2%. In the data set on Aβ secretion, the inhibition at 30 µM worked out at 45.6% and the “Aβ secretion inhibiting activity” value is “No tested substitutions in the linker region were well tolerated”. Further, in the data set on H4βAPP695 wt cells, the “Cell protein (% decrease) 10 μM Mean” value was −3.6% and the “Cell protein (% decrease) 30 μM Mean” value is 6.6%.
With `O=C(NCCS(=O)(=O)Cc1ccc(F)cc1)c1c(F)cccc1Cl` [Compound 24], the inhibition at 10 µM in the data set on Aβ secretion (setting [2]) was 39.2%.
Turning to `O=C(NCCSCc1ccccc1)c1ccccc1` [Compound 64, N-(2-Benzylsulfanyl-ethyl)-benzamide], the inhibition at 10 µM with Aβ secretion (setting [1]) is -5.7%. Also, the inhibition at 30 µM with Aβ secretion stood at 5.5%. For the same compound, in the data set with H4βAPP695 wt cells, the “Cell protein (% decrease) 10 μM Mean” value came out at 0.7% and the “Cell protein (% decrease) 30 μM Mean” value is on record as −4.1%.
Consider `Cc1cccc(C)c1C(=O)NCCSCc1cccc(Cl)c1` [Compound 75, N-[2-(3-chloro-benzylsulfanyl)-ethyl]-2,6-dimethyl-benzamide], for which, in the data set with Aβ secretion (setting [1]), the inhibition at 10 µM amounted to 29.5%. Moreover, in the data set on Aβ secretion, the inhibition at 30 µM amounted to 51.6% and the “Aβ secretion inhibiting activity” value was “not well tolerated”. Besides, in the data set on H4βAPP695 wt cells, the “Cell protein (% decrease) 10 μM Mean” value came out at 0.9% and the “Cell protein (% decrease) 30 μM Mean” value is on record as −9.4%.
As for `O=C(NCCSCc1cccc(OCCOCCO)c1)c1c(Cl)cccc1Cl` [Compound 70, 2,6-Dichloro-N-(2-(3-[2-(2-hydroxy-ethoxy)-ethoxy]-benzylsulfanyl)-ethyl)-benzamide], the inhibition at 10 µM with Aβ secretion (setting [1]) was 17.4%. In addition, in the data set with Aβ secretion, the inhibition at 30 µM was found to be 24.3% and the “Aβ secretion inhibiting activity” value is reported as “did not yield good activity”. In addition, in the data set on H4βAPP695 wt cells, the “Cell protein (% decrease) 10 μM Mean” value is listed as −7.3% and the “Cell protein (% decrease) 30 μM Mean” value came to 6.1%.
Turning to `COCCCNC(=O)c1c(Cl)cccc1Cl` [Compound 8], the inhibition at 10 µM with Aβ secretion (setting [2]) came out at 6.9%.
Take `O=C(NCCSCc1cccc(O)c1O)c1c(Cl)cccc1Cl` [Compound 58, 2,6-Dichloro-N-[2-(2,3-dihydroxy-benzylsulfanyl)-ethyl]-benzamide]: the inhibition at 10 µM with Aβ secretion (setting [1]) is -4.3%. In the data set on Aβ secretion, the inhibition at 30 µM stood at 33.1% and the “Aβ secretion inhibiting activity” value is “lost activity”. In the data set with H4βAPP695 wt cells, the “Cell protein (% decrease) 10 μM Mean” value is −4.8% and the “Cell protein (% decrease) 30 μM Mean” value is given as 14%.
Regarding `O=C(Cc1c(Cl)cccc1Cl)NCCSCc1cccc(Cl)c1` [Compound 78, N-[2-(3-chloro-benzylsulfanyl)-ethyl]-2-(2,6-dichloro-phenyl)-acetamide], the inhibition at 10 µM in the data set with Aβ secretion (setting [1]) was 6.7%. Besides, in the data set with Aβ secretion, the inhibition at 30 µM stood at 13.5% and the “Aβ secretion inhibiting activity” value is “No tested substitutions in the linker region were well tolerated”. For the same compound, in the data set on H4βAPP695 wt cells, the “Cell protein (% decrease) 10 μM Mean” value is on record as −1.3% and the “Cell protein (% decrease) 30 μM Mean” value is reported as “−.07%”.
With `O=C(NCCSCc1ccc(Cl)c(Cl)c1)c1ccccc1Cl` [Compound 5], in the data set on Aβ secretion (setting [2]), the inhibition at 10 µM stood at 0.7%.
In the case of `O=C(NCCSCc1ccccc1Cl)c1ccccc1Cl` [Compound 16], the inhibition at 10 µM with Aβ secretion (setting [2]) amounted to 4%.
As to `O=C(NCCSCc1ccc(F)cc1)c1c(F)cccc1Cl` [Compound 22], the inhibition at 10 µM in the data set on Aβ secretion (setting [2]) was determined as 27.3%.
For `Oc1c(Cl)cc(Cl)cc1/C=N/CCSCc1ccccc1Cl` [Compound 23], the inhibition at 10 µM in the data set with Aβ secretion (setting [2]) was determined as 5.3%.
For the compound `N=C(NO)c1cccc(CSCCNC(=O)c2c(Cl)cccc2Cl)c1` [Compound 39, 2,6-Dichloro-N-(2-[3-(N-hydroxycarbamimidoyl)-benzylsulfanyl]-ethyl)-benzamide], the inhibition at 10 µM with Aβ secretion (setting [1]) is -1.5%. Also, in the data set on Aβ secretion, the inhibition at 30 µM is 1.6% and the “Aβ secretion inhibiting activity” value is reported as “did not yield good activity”. In the data set with H4βAPP695 wt cells, the “Cell protein (% decrease) 10 μM Mean” value worked out at 9.2% and the “Cell protein (% decrease) 30 μM Mean” value came to 5.9%.
As for `O=C(NCCSCc1cccc(Cl)c1)c1ccccc1Cl` [Compound 3], the inhibition at 10 µM in the data set on Aβ secretion (setting [2]) worked out at 4.7%.
As to `O=C(NCCCCNC(=O)c1ccccc1Br)c1ccccc1Br` [Compound 4], in the data set with Aβ secretion (setting [2]), the inhibition at 10 µM stood at 7.9%.
Consider `O=C(NCCSCc1ccc(Cl)cc1)c1ccc(Cl)cc1Cl` [Compound 2], for which the inhibition at 10 µM with Aβ secretion (setting [2]) amounted to 5.3%.
Regarding `O=C(NCCNC(=O)c1c(Cl)cccc1Cl)c1c(Cl)cccc1Cl` [Compound 13], the inhibition at 10 µM in the data set on Aβ secretion (setting [2]) was 7.6%.
Consider `O=C(NCCSCc1ccc(Cl)cc1)c1ccccc1Cl` [Compound 17], for which, in the data set with Aβ secretion (setting [2]), the inhibition at 10 µM is -12%.
Take `O=C(NCCSCc1ccc(Cl)c(Cl)c1)c1ccc(Cl)cc1Cl` [Compound 6]: the inhibition at 10 µM in the data set on Aβ secretion (setting [2]) was 4.3%.
On to `NC(=O)c1c(Cl)cccc1CSCC(=O)c1c(Cl)cccc1Cl` [Compound 61, 2-Chloro-6-((2-(2,6-dichlorophenyl)-2-oxoethylthio)methyl)benzamide], for which, in the data set with Aβ secretion (setting [1]), the inhibition at 10 µM came to 44.7%. In the data set with Aβ secretion, the inhibition at 30 µM came to 49.7% and the “Aβ secretion inhibiting activity” value is listed as “could be tolerated”. In the data set with H4βAPP695 wt cells, the “Cell protein (% decrease) 10 μM Mean” value is recorded as 2.5% and the “Cell protein (% decrease) 30 μM Mean” value is recorded as −5.6%.
Consider `COc1cccc(C[S+]([O-])CCNC(=O)c2c(Cl)cccc2Cl)c1` (centres unmarked) [Compound 32, 2,6-dichloro-N-[2-(3-methoxy-phenylmethanesulfinyl)-ethyl]-benzamide], for which, in the data set on Aβ secretion (setting [1]), the inhibition at 10 µM is -13.6%. In the data set on Aβ secretion, the inhibition at 30 µM is -15.8% and the “Aβ secretion inhibiting activity” value is given as “No tested substitutions in the linker region were well tolerated”. Besides, in the data set on H4βAPP695 wt cells, the “Cell protein (% decrease) 10 μM Mean” value was 1.6% and the “Cell protein (% decrease) 30 μM Mean” value amounted to 9.2%.

By melting point is commonly meant the temperature, or range, at which the solid turns liquid.
